Assay results published in the OPERA property sets (Mansouri et al. 2018).

logP	SMILES
3.38	O=C(Oc1ccc(Cl)cc1)N1CCCC1
4.54	C=COC(=O)C(C)Oc1cc(Oc2ccc(C(F)(F)F)cc2Cl)ccc1[N+](=O)[O-] (stereo unspecified)
3.82	C#CCOc1cc(OC(=O)N2CCCC2)c(Cl)cc1Cl
3.92	O=[N+]([O-])c1ccc(Oc2ccccc2)cc1
4.22	CC(C)OC(=O)c1cc(OC(=O)N2CCCC2)c(F)cc1Cl
4.21	COC(=O)c1cc(Oc2cc(C(F)(F)F)ccc2Cl)ccc1[N+](=O)[O-]
4.76	COC(=O)c1cc(Sc2ccc(C(F)(F)F)cc2Cl)ccc1[N+](=O)[O-]
3.13	O=C(Oc1ccccc1Cl)N1CCCC1
2.98	O=C(Oc1cc(O)c(Cl)cc1Cl)N1CCCC1
4.53	CCOC(=O)C(C)Oc1cc(Oc2ccc(C(F)(F)F)cc2Cl)ccc1[N+](=O)[O-] (stereo unspecified)
5.04	COC(=O)c1cc(Oc2ccc(C(F)(F)F)cc2Cl)ccc1Cl
4.67	CC(C)OC(=O)c1cc(OC(=O)N2CCCC2)c(Cl)cc1Cl
2.73	O=C(Oc1ccccc1)N1CCCC1
4.33	O=[N+]([O-])c1ccc(Oc2ccc(C(F)(F)F)cc2Cl)cc1Oc1ccoc1
4.4	Cc1cccc(Oc2ccc([N+](=O)[O-])cc2)c1
2.93	C#CCOC1=Nc2cc(OC(=O)N3CCCC3)c(Cl)cc2OC1
3.57	COC(=O)c1cc(S(=O)(=O)c2ccc(C(F)(F)F)cc2Cl)ccc1[N+](=O)[O-]
3.95	COC(=O)c1cc(OC(=O)N2CCCC2)c(Cl)cc1Cl
4.25	C#CCOc1cc(OC(=O)N2CCCCC2)c(Cl)cc1Cl
3.57	C#CCOc1cc(OC(=O)N2CCC(F)(F)CC2)c(Cl)cc1Cl
3.65	COC(=O)c1cc(S(=O)c2ccc(C(F)(F)F)cc2Cl)ccc1[N+](=O)[O-] (stereo unspecified)
4.27	O=C(O)COC(=O)c1cc(Oc2ccc(C(F)(F)F)cc2Cl)ccc1[N+](=O)[O-]
3.95	C#CCOc1cc(OC(=O)N(CC)CC)c(Cl)cc1Cl
4.54	COC(=O)CON=C(C)c1cc(Oc2ccc(C(F)(F)F)cc2Cl)ccc1[N+](=O)[O-]
3.42	C#CCOc1cc(OC(=O)N2CCC(F)(F)C2)c(Cl)cc1Cl

SMILES	logP
O=C(Oc1ccc(Cl)cc1Cl)N1CCCC1	3.94
Nc1c([N+](=O)[O-])ccc(Oc2ccccc2)c1Cl	4.04
CCOc1cc(Oc2ccc(C(F)(F)F)cc2Cl)ccc1[N+](=O)[O-]	4.73
CCOC(=O)C(C)OC(=O)c1cc(Oc2ccc(C(F)(F)F)cc2Cl)ccc1[N+](=O)[O-] (stereo unspecified)	4.81
O=[N+]([O-])c1ccc(Oc2ccc(C(F)(F)F)cc2Cl)cc1	4.54
COC(=O)c1cc(Oc2ccc(C(F)(F)F)cc2Cl)ccc1[N+](=O)[O-]	4.26
